Assay results published in patent US7601716B2, “Pyridopyrazines and derivatives thereof as ALK and c-Met inhibitors” (Cephalon, Inc., priority 2006, dated 2009).

Columns and labels:
[1] = biological target: T1, c-Met (cytoplasmic domain) (Homo sapiens, UniProt P08581); experiment: c-Met Kinase Assay (ELISA/TRF, PLC-γ substrate); type: biochemical; settings: 3 μM ATP (Km level); read-out: c-Met Kinase Inhibition (IC50)
T1 construct: Reactions were initiated with 30 ng/mL c-Met (cytoplasmic domain, Invitrogen Corporation #PV3143); purchased Invitrogen Corporation PV3143
How it was run: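 c-Met cytoplasmic domain (30 ng/mL) phosphorylates plate-coated GST–PLC-γ for 15 min at 37 °C. Phosphotyrosine detected with Eu-labeled PT66 antibody by time-resolved fluorescence. IC50 from variable-slope sigmoidal fit of % inhibition vs log concentration.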

[2] = biological target: baculovirus-expressed ALK (Homo sapiens, UniProt Q9UM73); experiment: ALK Kinase Assay (ELISA/TRF, PLC-γ substrate); type: biochemical; settings: read-out: ALK Kinase Inhibition (IC50); also: 1 µM ATP (Km level)
How it was run: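 GST-PLC-γ coat 10 μg/mL/TBS; 30 ng/ml ALK, 37° C, 15 min; Eu-PT66 anti-pTyr 1 h 37° C, enhancement, TRF. IC50: % inhib vs log10[cpd], variable-slope sigmoid.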

[3] = biological target: T2, c-Met (phospho-c-Met) in HT29 cells (Homo sapiens, UniProt P08581); experiment: c-Met Cellular Activity/Autophosphorylation Assay, HT29 cells; type: cell-based; settings: for inhibition at 1 µM: HT-29, 1 μM compound, read-out: c-Met autophosphorylation inhibition score, HT29 Cells (1 μM); for inhibition at 3 µM: HT-29, 3 μM compound, read-out: c-Met autophosphorylation inhibition score, HT29 Cells (3 μM)
T2 construct: endogenous in cells; host or cells: HT29, A549 (HGF-stimulated), GTL-16
How it was run: (§1)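 HT29 and GTL-16 cells serum-starved 1 h in 0.05% BSA with compound (1-10 μM); A549 serum-starved overnight, compound-treated 1 h, then HGF 50 ng/mL for 15 min. Lysates Western blotted; phospho-c-Met and total c-Met quantified by infrared fluorescence imaging.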

[4] = biological target: T3, c-Met (phospho-c-Met) in A549 cells (Homo sapiens, UniProt P08581); experiment: c-Met Cellular Activity/Autophosphorylation Assay, A549 cells (HGF stimulated); type: cell-based; settings: 50 ng/mL HGF; for inhibition at 1 µM: 1 μM compound, read-out: c-Met autophosphorylation inhibition score, A549 Cells (1 μM); for inhibition at 3 µM: 3 μM compound, read-out: c-Met autophosphorylation inhibition score, A549 Cells (3 μM)
T3 construct: endogenous in cells; host or cells: HT29, A549 (HGF-stimulated), GTL-16
How it was run: as §1

NPM-ALK = biological target: T4, NPM-ALK (Homo sapiens, UniProt Q9UM73); experiment: ALK Cellular Assay (phospho-NPM-ALK immunoblot / ALK tyrosine phosphorylation ELISA); type: cell-based
T4 construct: a fusion protein consisting of nucleophosmin (NMP) and the intracellular domain of ALK; the other entry of the earlier key: NPM1 (P06748, Nucleophosmin)
How it was run: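 Compound-treated cells lysed; phospho-NPM-ALK (Y664) and total ALK detected by immunoblot with ECL and quantified by densitometry. Alternatively, an ELISA captured ALK from lysates overnight at 4 °C, detected anti-phospho-ALK (Y664) with alkaline phosphatase and a 4-MeUP fluorogenic read-out.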

[5] = biological target: T5, c-Met (phospho-c-Met) in GTL-16 cells (Homo sapiens, UniProt P08581); experiment: c-Met Cellular Activity/Autophosphorylation Assay, GTL-16 cells; type: cell-based; settings: for inhibition at 1 µM: 1 μM compound, read-out: c-Met autophosphorylation inhibition score, GTL-16 Cells (1 μM); for inhibition at 3 µM: 3 μM compound, read-out: c-Met autophosphorylation inhibition score, GTL-16 Cells (3 μM)
T5 construct: endogenous in cells; host or cells: HT29, A549 (HGF-stimulated), GTL-16
Description: HT29 and GTL-16 cells were serum starved for one hour in media containing 0.05% BSA and varying concentrations of Example compounds (1-10 μM). A549 cells were serum starved overnight in media containing 0.05% BSA then treated for one hour with Example compounds followed by a 15 minute stimulation with 50 ng/mL HGF (Peprotech, Rocky Hill, N.J.), respectively. Samples were resolved by electrophoresis on a 3-8% Tris-Acetate gel (40 ma/gel) and then transferred to a nitrocellulose membrane. Membranes were blocked for one hour at room temperature in Odyssey Blocking Buffer (Licor #927-40000) diluted 1:1 with 1×TBS. Membranes were then co-incubated overnight at 4° C. with primary antibodies [total Met (Cell Signaling, #3127) and Phospho-Met (Biosource, #44-888G) 1:1000 each in Odyssey Blocking Buffer diluted 1:1 with 1×TBS-T 0.05%]. The next day, membranes were washed and co-incubated with secondary antibodies [Goat anti mouse IRDye800 (Rockland, #610-132-121) and Goat anti rabbit Alexa fluor 700 (Molecular Probes, #A21038) 1:10,000] in Odyssey Blocking Buffer diluted 1:1 with 1×TBS-T 0.05% for one hour at room temperature protected from light. Blots were then washed and read on the Odyssey Infrared Imager. Total c-Met signal was visualized at 800 nm detection and phospho-c-Met signal was visualized at 700 nm detection.

T4 sequence (Q9UM73 with tags, fused parts or gaps): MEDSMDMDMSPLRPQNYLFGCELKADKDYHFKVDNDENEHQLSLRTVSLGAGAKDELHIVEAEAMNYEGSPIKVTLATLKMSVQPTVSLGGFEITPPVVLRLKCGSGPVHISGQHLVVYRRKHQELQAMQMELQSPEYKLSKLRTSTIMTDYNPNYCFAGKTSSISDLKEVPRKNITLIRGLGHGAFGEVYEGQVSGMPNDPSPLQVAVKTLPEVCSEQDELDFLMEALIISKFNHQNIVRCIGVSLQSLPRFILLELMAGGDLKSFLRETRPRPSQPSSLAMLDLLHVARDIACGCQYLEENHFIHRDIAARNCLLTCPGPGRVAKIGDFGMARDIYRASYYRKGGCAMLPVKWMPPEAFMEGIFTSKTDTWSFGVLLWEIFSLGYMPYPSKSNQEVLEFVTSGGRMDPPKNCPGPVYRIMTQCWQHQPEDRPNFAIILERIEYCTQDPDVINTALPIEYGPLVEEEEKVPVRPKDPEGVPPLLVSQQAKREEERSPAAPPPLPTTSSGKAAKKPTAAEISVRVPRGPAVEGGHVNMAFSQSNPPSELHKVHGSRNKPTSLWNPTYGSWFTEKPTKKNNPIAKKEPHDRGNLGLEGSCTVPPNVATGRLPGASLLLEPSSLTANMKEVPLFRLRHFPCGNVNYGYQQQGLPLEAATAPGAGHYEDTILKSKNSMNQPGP
T1 sequence (P08581 956-1390 limits assumed): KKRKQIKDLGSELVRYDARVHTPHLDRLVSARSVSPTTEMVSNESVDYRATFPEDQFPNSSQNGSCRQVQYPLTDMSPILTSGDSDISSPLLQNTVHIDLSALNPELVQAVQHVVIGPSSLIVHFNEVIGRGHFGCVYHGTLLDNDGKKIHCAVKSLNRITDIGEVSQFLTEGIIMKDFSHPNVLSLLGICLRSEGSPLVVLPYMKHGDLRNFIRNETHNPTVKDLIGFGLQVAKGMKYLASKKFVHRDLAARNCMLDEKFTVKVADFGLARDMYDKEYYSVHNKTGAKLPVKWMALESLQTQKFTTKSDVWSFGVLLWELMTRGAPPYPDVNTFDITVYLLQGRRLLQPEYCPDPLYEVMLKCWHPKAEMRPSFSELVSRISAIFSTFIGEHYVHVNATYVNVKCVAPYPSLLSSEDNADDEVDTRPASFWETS
baculovirus-expressed ALK, sequence (Q9UM73 19-1620): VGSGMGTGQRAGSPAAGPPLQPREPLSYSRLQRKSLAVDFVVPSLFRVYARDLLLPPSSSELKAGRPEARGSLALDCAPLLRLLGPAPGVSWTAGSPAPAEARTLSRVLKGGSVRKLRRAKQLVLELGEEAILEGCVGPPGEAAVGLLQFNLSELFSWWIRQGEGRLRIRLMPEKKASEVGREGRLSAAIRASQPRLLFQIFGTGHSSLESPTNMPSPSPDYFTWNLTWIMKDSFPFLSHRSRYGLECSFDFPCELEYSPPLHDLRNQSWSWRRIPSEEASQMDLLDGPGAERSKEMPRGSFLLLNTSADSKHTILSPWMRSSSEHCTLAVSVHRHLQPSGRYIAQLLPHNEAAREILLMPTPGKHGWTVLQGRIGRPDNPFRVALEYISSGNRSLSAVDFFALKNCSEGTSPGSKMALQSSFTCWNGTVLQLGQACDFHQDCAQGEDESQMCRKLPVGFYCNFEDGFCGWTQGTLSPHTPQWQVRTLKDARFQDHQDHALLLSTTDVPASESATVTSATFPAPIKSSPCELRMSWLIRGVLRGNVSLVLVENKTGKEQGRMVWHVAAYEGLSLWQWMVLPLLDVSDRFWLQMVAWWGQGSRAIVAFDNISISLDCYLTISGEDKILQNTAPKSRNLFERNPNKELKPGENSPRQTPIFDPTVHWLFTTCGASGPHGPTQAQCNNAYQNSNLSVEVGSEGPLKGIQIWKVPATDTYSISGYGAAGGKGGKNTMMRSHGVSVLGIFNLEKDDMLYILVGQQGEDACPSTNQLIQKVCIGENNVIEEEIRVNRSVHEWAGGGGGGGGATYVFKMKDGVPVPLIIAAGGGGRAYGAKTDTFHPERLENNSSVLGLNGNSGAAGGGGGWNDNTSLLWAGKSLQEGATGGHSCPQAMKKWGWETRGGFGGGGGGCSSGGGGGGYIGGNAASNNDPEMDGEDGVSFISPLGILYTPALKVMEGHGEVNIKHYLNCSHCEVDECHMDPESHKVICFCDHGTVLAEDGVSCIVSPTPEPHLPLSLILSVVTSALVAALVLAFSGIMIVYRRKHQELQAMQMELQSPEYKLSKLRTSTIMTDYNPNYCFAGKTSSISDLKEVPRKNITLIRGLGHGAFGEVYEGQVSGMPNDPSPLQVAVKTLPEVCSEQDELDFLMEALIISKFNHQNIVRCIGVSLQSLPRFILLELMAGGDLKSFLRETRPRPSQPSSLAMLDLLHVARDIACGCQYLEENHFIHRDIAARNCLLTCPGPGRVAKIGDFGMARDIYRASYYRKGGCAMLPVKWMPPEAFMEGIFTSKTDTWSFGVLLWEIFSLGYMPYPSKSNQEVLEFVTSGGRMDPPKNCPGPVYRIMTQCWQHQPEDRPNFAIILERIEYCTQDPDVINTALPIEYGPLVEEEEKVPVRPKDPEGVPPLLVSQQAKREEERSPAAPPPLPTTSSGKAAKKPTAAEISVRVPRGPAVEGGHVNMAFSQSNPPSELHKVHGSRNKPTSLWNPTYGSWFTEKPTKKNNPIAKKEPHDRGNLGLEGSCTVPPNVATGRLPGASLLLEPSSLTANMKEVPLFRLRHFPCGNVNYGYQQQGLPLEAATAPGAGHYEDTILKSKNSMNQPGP
T5 sequence (P08581 25-1390): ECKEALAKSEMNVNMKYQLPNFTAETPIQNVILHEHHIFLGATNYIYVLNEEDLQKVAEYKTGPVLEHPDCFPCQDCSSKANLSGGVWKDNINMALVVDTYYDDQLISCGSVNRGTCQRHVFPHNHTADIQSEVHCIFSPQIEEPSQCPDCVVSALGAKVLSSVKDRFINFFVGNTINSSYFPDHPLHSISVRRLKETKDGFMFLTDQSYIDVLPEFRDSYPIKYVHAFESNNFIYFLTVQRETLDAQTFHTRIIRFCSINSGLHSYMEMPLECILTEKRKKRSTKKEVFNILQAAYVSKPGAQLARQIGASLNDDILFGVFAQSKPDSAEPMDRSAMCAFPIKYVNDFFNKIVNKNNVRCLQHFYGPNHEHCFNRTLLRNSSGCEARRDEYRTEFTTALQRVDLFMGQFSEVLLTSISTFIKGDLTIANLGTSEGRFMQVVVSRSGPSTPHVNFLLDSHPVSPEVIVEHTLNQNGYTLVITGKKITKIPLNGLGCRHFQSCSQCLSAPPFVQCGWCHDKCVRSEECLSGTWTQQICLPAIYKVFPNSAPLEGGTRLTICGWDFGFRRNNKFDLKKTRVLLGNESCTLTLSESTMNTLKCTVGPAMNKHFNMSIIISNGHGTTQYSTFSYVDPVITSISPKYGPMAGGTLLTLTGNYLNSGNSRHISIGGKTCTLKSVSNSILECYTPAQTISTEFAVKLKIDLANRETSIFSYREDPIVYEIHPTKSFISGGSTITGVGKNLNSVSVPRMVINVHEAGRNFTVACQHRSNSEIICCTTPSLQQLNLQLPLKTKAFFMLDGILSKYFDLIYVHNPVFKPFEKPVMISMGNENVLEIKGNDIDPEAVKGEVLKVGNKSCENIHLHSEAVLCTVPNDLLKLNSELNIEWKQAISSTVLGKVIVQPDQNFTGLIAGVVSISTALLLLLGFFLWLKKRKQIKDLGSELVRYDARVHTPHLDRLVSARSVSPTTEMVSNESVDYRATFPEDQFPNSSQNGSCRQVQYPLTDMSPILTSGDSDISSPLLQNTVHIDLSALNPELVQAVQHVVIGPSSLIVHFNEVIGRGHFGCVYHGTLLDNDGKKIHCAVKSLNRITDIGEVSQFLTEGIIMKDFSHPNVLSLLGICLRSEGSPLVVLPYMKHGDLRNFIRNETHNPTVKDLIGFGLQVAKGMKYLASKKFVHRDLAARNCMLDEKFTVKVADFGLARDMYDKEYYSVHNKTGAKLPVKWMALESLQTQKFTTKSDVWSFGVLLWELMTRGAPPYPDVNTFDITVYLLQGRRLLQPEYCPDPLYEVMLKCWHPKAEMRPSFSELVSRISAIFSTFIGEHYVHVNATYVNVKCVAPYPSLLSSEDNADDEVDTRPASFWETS

SMILES | IC50 [1] | IC50 [2] | inhibition at 1 µM [3] | inhibition at 3 µM [3] | inhibition at 1 µM [4] | inhibition at 3 µM [4] | IC50 (NPM-ALK) | melting point | inhibition at 1 µM [5] | inhibition at 3 µM [5]
CN1CCN(c2ccc(-c3cnc4c(c3)N(Cc3cc(F)ccc3F)CCN4)cn2)CC1 [Example 69, 1-(2,5-Difluorobenzyl)-7-[6-(4-methylpiperazin-1-yl)pyridin-3-yl]-1,2,3,4-tetrahydropyrido[2,3-b]pyrazine] | 1000 to 10000 nM | < 100 nM | 0 to 25% | 0 to 25% | 0 to 25% | 0 to 25% | 751 to 1000 nM | 192 to 193 °C |  | 
Fc1ccc(F)c(CN2CCNc3ncc(-c4ccnc(N5CCOCC5)c4)cc32)c1Cl [Example 186, 1-(2-Chloro-3,6-difluorobenzyl)-7-(2-morpholin-4-yl-pyridin-4-yl)-1,2,3,4-tetrahydropyrido[2,3-b]pyrazine] | 1000 to 10000 nM | < 100 nM | 26 to 50% | 26 to 50% |  |  | ≤ 250 nM | 157 °C | 0 to 25% | 0 to 25%
CN1CCN(c2ccc(-c3cnc4c(c3)N(Cc3c(F)ccc(F)c3Cl)CCN4)cn2)CC1 [Example 185, 1-(2-Chloro-3,6-difluorobenzyl)-7-[6-(4-methylpiperazin-1-yl)pyridin-3-yl]-1,2,3,4-tetrahydropyrido[2,3-b]pyrazine] |  |  | 51 to 75% | 76 to 100% |  |  |  |  | 0 to 25% | 0 to 25%
O=C1CNc2ncc(-c3ccc(C(=O)N4CCC[C@H]4CN4CCCC4)cc3)cc2N1Cc1cc(Cl)ccc1Cl [Example 157, S-1-(2,5-Dichlorobenzyl)-7-[4-(2-[(pyrrolidin-1-yl)methyl]pyrrolidine-1-carbonyl)phenyl]-3,4-dihydro-1H-pyrido[2,3-b]pyrazin-2-one] | 100 to 1000 nM | < 100 nM | 0 to 25% | 26 to 50% | 0 to 25% | 0 to 25% | 251 to 500 nM | 180 °C |  | 
O=C(c1ccc(-c2cnc3c(c2)N(Cc2c(F)ccc(F)c2Cl)CCN3)cc1)N1CCC(N2CCCC2)CC1 [Example 99, {4-[1-(2-Chloro-3,6-difluorobenzyl)-1,2,3,4-tetrahydropyrido[2,3-b]pyrazin-7-yl]phenyl}-(4-(pyrrolidin-1-yl)piperidin-1-yl)methanone] | 100 to 1000 nM | < 100 nM | 0 to 25% | 0 to 25% | 0 to 25% | 0 to 25% | ≤ 250 nM | 93 to 95 °C |  | 
